System: G. duodenalis BRIS/91/HEPU/1279
Assay: Primary Giardia screen at 10 µM (live-cell imaging, automated counting)
Type: cell-based, Giardia duodenalis
Conditions: for % Inhibition n=1 48h / % Inhibition n=1 24h: first singlicate assay; for % Inhibition n=2 24h / % Inhibition n=2 48h: re-assessment
Method in brief: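 Singlicate, 10 μM final, 0.2% DMSO; sealed chambers, 3% O2/5% CO2/N2. Counts by live-cell imaging at 24 h and 48 h. % growth vs vehicle, media background subtracted; Z' per plate.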

Compound	% Inhibition n=1 48h [%]	further results
CCn1c(Cn2c(-c3cccnc3)noc2=O)nc2c(F)cccc21 [SN00781429]	0.0	–
CCOC(=O)N1CCc2c(nc(-c3ccc(C)cc3)n(CC(=O)Nc3ccc(Cl)cc3)c2=O)C1 [SN00795497]	41.5	–
Cc1cc(C2CCCN2Cc2sccc2C)on1 (stereo not drawn) [SN00793909]	2.5	–
COc1ccc(-n2nc3c(c2NC(=O)c2ccc([N+](=O)[O-])cc2)CS(=O)(=O)C3)cc1 [SN00802781]	12.4	–
CC(=O)N1CCCN(Cc2ncc(Cl)n2C)CC1 [SN00771536]	46.7	–
Cc1ccc(CNc2nc(-c3ccco3)nn2C(=O)C(C)C)cc1 [SN00786221]	11.1	–
O=[N+]([O-])c1ccc(S(=O)(=O)N2CCCCCC2c2cccs2)cc1 (stereo not drawn) [SN00793856]	39.9	–
COc1ccc(NC(=O)c2cnc(N3CCN(CC(=O)N4CCCC4)CC3)nc2N)cc1 [SN00798764]	0.0	–
CSc1cccc(NC(=O)CN2C(=O)C(C)N=C(c3ccccc3)c3ccccc32)c1 (stereo not drawn) [SN00784896]	0.0	–
CCCCNC(=O)c1cccc(N2CCCC2=O)c1 [SN00784930]	4.7	–
O=C(C1CCCN1S(=O)(=O)c1ccc(Br)cc1)N1CCCCC1 (stereo not drawn) [SN00774966]	3.8	–
Cc1ccc(C2c3cccn3-c3ccccc3CN2C(=O)c2cccnc2)cc1 (stereo not drawn) [SN00795042]	0.0	–
Cc1ccc(S(=O)(=O)Nc2ccc3c(c2)N(C(=O)c2ccco2)CCC3)cc1C [SN00792238]	12.2	–
Cc1noc(C)c1S(=O)(=O)N1CCC(C(=O)NCC(c2ccccc2)N(C)C)CC1 (stereo not drawn) [SN00775659]	0.0	–
O=C(CS(=O)(=O)c1ccc2c(c1)S(=O)(=O)N=CN2)Nc1ccccc1 [SN00792172]	15.6	–
COc1ccc(Nc2cc(C)nc(N3CCN(C(=O)c4ccccc4)CC3)n2)cc1 [SN00793485]	58.6	Average % Inhibition 24h: 5.5%; % Inhibition n=1 24h: 11.1%; % Inhibition n=2 24h: 0.0%; Average % Inhibition 48h: 29.3%; % Inhibition n=2 48h: 0.0%
CCCNS(=O)(=O)c1cc(C(=O)N2CCCC2)cs1 [SN00789651]	0.0	–
COc1cccc(C2(C)NC(=O)N(Cc3csc(-c4ccccc4)n3)C2=O)c1 (stereo not drawn) [SN00782700]	0.0	–
Cc1ccc(C2(C)NC(=O)N(Cc3ncc(-c4ccccc4)o3)C2=O)cc1 (stereo not drawn) [SN00774002]	0.0	–

Compound	% Inhibition n=1 48h [%]	further results
COc1ccc(S(=O)(=O)n2nc(-c3cc(OC)c(OC)c(OC)c3)cc2N)cc1OC [SN00785320]	21.7	–
COCC(=O)N1CCc2c(c(COCc3ccc(C)cc3)nn2C)C1 [SN00796424]	0.0	–
O=C(N1CCN(c2cccc(Cl)c2)CC1)C1(S(=O)(=O)c2ccc(Cl)cc2)CC1 [SN00784607]	0.0	–
COc1ccc2c(c1)NC1(CCN(C(=O)Cc3ccc(F)cc3)CC1)c1cccn1-2 [SN00789241]	5.9	–
COc1cc(NC(=O)C2CCCN(c3nc4ccccc4[nH]c3=O)C2)cc(OC)c1 (stereo not drawn) [SN00790089]	0.0	–
Cc1c(F)cccc1NC(=O)Nc1ccc2c(c1)CCN2S(C)(=O)=O [SN00796291]	21.1	–
Cc1nnc(CN2CCN(CC(O)COCc3ccco3)CC2)n1C (stereo not drawn) [SN00772332]	57.1	Average % Inhibition 24h: 0.0%; % Inhibition n=1 24h: 0.0%; % Inhibition n=2 24h: 0.0%; Average % Inhibition 48h: 28.5%; % Inhibition n=2 48h: 0.0%
O=C(NCc1cccc(F)c1)C1CCCN(c2nc3ccccc3n3cccc23)C1 (stereo not drawn) [SN00787408]	0.0	–
Cc1ccc(-c2noc(-c3cccn4c(=O)n(CC(=O)Nc5cc(C)ccc5C)nc34)n2)cc1 [SN00798102]	23.0	–
Cc1noc2ncnc(N3CCCC(C(=O)N4CCCCCC4)C3)c12 (stereo not drawn) [SN00788609]	0.0	–
CCC1(N2CCN(C)CC2)CCN(S(=O)(=O)c2ccccc2)C1 (stereo not drawn) [SN00802274]	2.6	–
O=c1c2cccnc2n(Cc2cc(=O)n3ccccc3n2)c(=O)n1CCc1ccccc1 [SN00784337]	7.3	–
CCCNC(=O)c1cc(-c2ccc(F)cc2)on1 [SN00784460]	0.0	–
CN1c2ccccc2OCC1CC(=O)Nc1ccc(F)cc1 (stereo not drawn) [SN00790682]	7.6	–
COc1ccccc1-c1cc(C(=O)Nc2sc(Nc3ccccc3)nc2C(N)=O)[nH]n1 [SN00792956]	11.1	–
CCCNC(=O)Cn1cccc1-c1nc(-c2ccc(Cl)cc2)cs1 [SN00797520]	24.8	–
Cc1cc(C2CCCN2Cc2cc(-c3ccco3)on2)on1 (stereo not drawn) [SN00777724]	35.3	–
CCN1C(=O)C(=O)N(Cc2coc(-c3ccc(C)cc3)n2)C1=O [SN00778011]	28.7	–
NC(=O)c1nn2c(C(F)(F)F)cc(-c3ccccc3)nc2c1Br [SN00783344]	38.7	–
